25 compounds from ChEMBL document CHEMBL4330140, “Novel human adenosine receptor antagonists based on the 7-amino-thiazolo[5,4-d]pyrimidine scaffold. Structural investigations at the 2-, 5- and 7-positions to enhance affinity and tune selectivity” (Bioorg Med Chem Lett, 2019) can be followed below.

Molecules are shown by their SMILES.

Test [1] is filed under the species Homo sapiens. In words: Selectivity ratio of Ki for displacement of [3H]CCPA from human adenosine A1 receptor expressed in CHO cells to Ki for displacement of [3H]NECA from human adenosine A2A receptor expressed in CHO cells. Format: cell-based. For orientation: In a radioligand displacement assay an active substance lowers the binding of a labelled ligand.
The species entered for test [2] is Homo sapiens. Nature of the test: Selectivity ratio of Ki for displacement of [3H]HEMADO from human adenosine A3 receptor expressed in CHO cells to Ki for displacement of [3H]NECA from human adenosine A2A receptor expressed in CHO cells. Format: cell-based.
Test [3] concerns the target T1, Adenosine receptor A2a (Homo sapiens, UniProt P29274). Nature of the test: Displacement of [3H]NECA from human adenosine A2A receptor expressed in CHO cells after 3 hrs by scintillation counting method. Format: cell-based.
The target in test [4] is T2, Adenosine receptor A3 (Homo sapiens, UniProt P0DMS8).
T2 sequence (P0DMS8 whole entry): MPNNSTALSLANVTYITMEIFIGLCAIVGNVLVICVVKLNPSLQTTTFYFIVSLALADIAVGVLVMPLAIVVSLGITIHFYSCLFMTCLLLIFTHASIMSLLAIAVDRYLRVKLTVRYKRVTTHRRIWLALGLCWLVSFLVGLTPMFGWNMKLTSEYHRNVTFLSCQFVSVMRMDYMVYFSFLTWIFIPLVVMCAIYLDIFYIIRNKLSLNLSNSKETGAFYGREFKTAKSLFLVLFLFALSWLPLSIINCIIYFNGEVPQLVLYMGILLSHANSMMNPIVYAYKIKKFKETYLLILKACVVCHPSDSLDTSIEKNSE
In words: Displacement of [3H]HEMADO from human adenosine A3 receptor expressed in CHO cells after 3 hrs by scintillation counting method. Format: cell-based.

In test [5] the target is T3, Adenosine receptor A2b (Homo sapiens, UniProt P29275).
T3 sequence (P29275 whole entry): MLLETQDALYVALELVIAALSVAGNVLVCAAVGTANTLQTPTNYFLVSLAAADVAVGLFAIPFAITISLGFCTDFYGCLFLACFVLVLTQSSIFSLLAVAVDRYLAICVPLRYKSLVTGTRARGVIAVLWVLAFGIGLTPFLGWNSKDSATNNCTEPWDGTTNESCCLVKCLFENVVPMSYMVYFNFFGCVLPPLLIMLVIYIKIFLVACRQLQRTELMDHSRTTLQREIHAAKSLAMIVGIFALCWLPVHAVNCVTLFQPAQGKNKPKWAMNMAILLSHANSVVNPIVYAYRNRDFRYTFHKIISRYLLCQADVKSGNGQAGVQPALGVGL
In words: Antagonist activity at human adenosine A2B receptor expressed in CHO cells assessed as inhibition of NECA-induced increase in cAMP accumulation preincubated for 10 mins followed by NECA addition by GloSensor cAMP assay. Format: functional, cell-based. (In general: Cyclic AMP is a second messenger, typically raised through Gs and lowered through Gi signalling.)

For test [6], the target named is T1, Adenosine receptor A2a. In words: Antagonist activity at human adenosine A2A receptor expressed in CHO cells assessed as inhibition of NECA-induced increase in cAMP accumulation preincubated for 10 mins followed by NECA addition by GloSensor cAMP assay. Format: functional, cell-based.
Test [7] concerns the target T4, Adenosine receptor A1 (Homo sapiens, UniProt P30542).
T4 sequence (P30542 whole entry): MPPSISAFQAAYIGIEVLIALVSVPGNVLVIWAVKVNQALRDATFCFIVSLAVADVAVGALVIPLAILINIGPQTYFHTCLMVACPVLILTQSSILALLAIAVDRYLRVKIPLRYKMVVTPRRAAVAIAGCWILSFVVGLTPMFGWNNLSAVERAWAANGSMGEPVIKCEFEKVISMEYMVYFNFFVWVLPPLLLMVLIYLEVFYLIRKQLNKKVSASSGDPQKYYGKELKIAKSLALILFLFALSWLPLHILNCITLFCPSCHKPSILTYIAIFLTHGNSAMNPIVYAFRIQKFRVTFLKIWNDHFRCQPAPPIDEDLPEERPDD
In words: Displacement of [3H]CCPA from human adenosine A1 receptor expressed in CHO cells after 3 hrs by scintillation counting method. Format: cell-based.

In test [8] the target is Adenosine receptors; A1 & A3 (Homo sapiens) (UniProt P30542+P0DMS8). In words: Selectivity ratio of Ki for displacement of [3H]CCPA from human adenosine A1 receptor expressed in CHO cells to Ki for displacement of [3H]HEMADO from human adenosine A3 receptor expressed in CHO cells. Format: cell-based.
Test [9] is filed under the species Homo sapiens. In words: Selectivity ratio of Ki for [3H]NECA from human adenosine A2A receptor expressed in CHO cells to Ki for displacement of [3H]HEMADO from human adenosine A3 receptor expressed in CHO cells. Format: cell-based.

T1 sequence (P29274 whole entry): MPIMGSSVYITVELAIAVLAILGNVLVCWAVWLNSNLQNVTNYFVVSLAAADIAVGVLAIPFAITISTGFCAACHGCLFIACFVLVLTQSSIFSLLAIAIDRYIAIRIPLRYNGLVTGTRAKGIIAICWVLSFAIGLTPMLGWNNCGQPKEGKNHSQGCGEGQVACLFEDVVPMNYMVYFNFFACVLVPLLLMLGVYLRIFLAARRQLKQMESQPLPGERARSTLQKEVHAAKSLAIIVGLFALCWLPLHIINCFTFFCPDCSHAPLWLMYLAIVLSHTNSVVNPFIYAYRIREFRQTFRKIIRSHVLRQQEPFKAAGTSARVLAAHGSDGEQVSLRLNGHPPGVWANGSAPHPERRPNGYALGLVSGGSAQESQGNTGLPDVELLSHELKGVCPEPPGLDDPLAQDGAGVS

Usually Ki stands for the equilibrium dissociation constant of an inhibitor or competing ligand from its target. Low readings indicate a stronger hold on the target, high ones a looser hold on the target. In general, IC50 refers to the midpoint of a concentration-inhibition curve. For `Nc1nc(-c2ccco2)nc2sc(-c3ccco3)nc12`, the figures for the Ratio Ki in [1] and in test [2] were 20.3 and 29.1, respectively. For the same compound, the Ki in [3] is 3.4 nM; in test [4], 99 nM; in test [7], 69 nM. For the same compound, the values for the IC50 in test [5] and in test [6] were > 30000 nM and 301 nM, respectively.

On to `COc1ccc(C(=O)Nc2nc(C)nc3sc(-c4ccccc4)nc23)cc1`, for which the values for the Ratio Ki in test [8] and in [9] were 16 and > 300, respectively. Moreover, the Ki in [3] is > 30000 nM; in [4], 91 nM; in test [7], 1460 nM. In [5], the IC50 was > 30000 nM.

With `COc1cccc(-c2nc(N)c3nc(-c4ccccc4)sc3n2)c1`, the Ratio Ki stood at 1.6 in [1] and 0.3 in test [2]. For the same compound, the Ki in test [3] was determined as 110 nM; in test [4], 35.6 nM; in test [7] it was 176 nM. For the same compound, in [5], the IC50 was > 30000 nM.

`Cc1nc(N)c2nc(-c3ccccc3)sc2n1`: the Ratio Ki in test [8] came to 0.01; in test [1], 0.14; in [2] it was 10.7; in test [9], 0.09. Also, the Ki in test [3] was 248 nM; in test [4] it was 2660 nM; in [7], 34 nM. In addition, the IC50 in test [5] is > 30000 nM.

Turning to `N#Cc1cccc(-c2nc(N)c3nc(-c4ccccc4)sc3n2)c1`, the Ratio Ki amounted to 17.7 in test [1] and 7.3 in [2]. Besides, the results for the Ki in test [3], in test [4] and in test [7] were 33.6 nM, 247 nM and 594 nM, respectively. Moreover, the concentration for half-maximal inhibition (IC50) in [5] is > 30000 nM.

Consider `Nc1nc(-c2cccc(CO)c2)nc2sc(-c3ccccc3)nc12`, for which the Ratio Ki in test [1] came to 0.6; in [2], 0.07. In addition, the Ki came to 53 nM in [3], 3.7 nM in [4] and 32 nM in test [7]. Further, in test [5], the IC50 is > 30000 nM.

Take `N#Cc1cccc(-c2nc(N)c3nc(-c4ccco4)sc3n2)c1`: the Ratio Ki in test [1] amounted to 13.3; in [2], 8. Besides, the Ki in test [3] amounted to 7.7 nM; in test [4] it was 61.5 nM; in [7] it was 103 nM. Further, in test [5], the IC50 was > 30000 nM.

As to `O=C(Nc1nc(-c2ccccc2)nc2sc(-c3ccccc3)nc12)c1ccco1`, the Ratio Ki in [8] amounted to 47.4; in [9], 83. The Ki in test [3] worked out at 3980 nM; in test [4], 48 nM; in [7], 2280 nM. In addition, the IC50 in [5] was > 30000 nM.

For `Cc1nc(NC(=O)c2ccc(Cl)cc2)c2nc(-c3ccccc3)sc2n1`, the Ki in [3], in [4] and in test [7] was > 30000 nM throughout. For the same compound, in [5], the IC50 was > 30000 nM.

For the compound `O=C(Nc1nc(-c2ccccc2)nc2sc(-c3ccco3)nc12)c1ccccc1`, the Ratio Ki in [8] is > 900; in test [9], 35.7. In addition, the Ki in test [3] is 1140 nM; in test [4], 32 nM; in test [7] it was > 30000 nM. Moreover, in [5], the IC50 is > 30000 nM.

For the compound `O=C(Nc1nc(-c2ccccc2)nc2sc(-c3ccccc3)nc12)c1ccccc1`, the Ratio Ki in test [8] was 1.2; in test [9] it was 0.08. In addition, the Ki in test [3] amounted to 104 nM; in test [4], 1200 nM; in [7], 1470 nM. Further, the IC50 in test [5] was > 30000 nM.

With `COc1cccc(-c2nc(N)c3nc(-c4ccco4)sc3n2)c1`, the Ratio Ki was 32.8 in test [1] and 2.6 in test [2]. For the same compound, the Ki amounted to 1.9 nM in test [3], 4.9 nM in test [4] and 62.3 nM in test [7]. Moreover, the IC50 in [5] was > 30000 nM.

Consider `Nc1nc(-c2ccco2)nc2sc(-c3ccccc3)nc12`, for which the Ratio Ki in test [1] stood at 39.4; in test [2], 1.6. Further, the inhibition constant (Ki) in test [3] was determined as 1.7 nM; in [4], 2.8 nM; in test [7], 67 nM. Moreover, the IC50 in [5] was > 30000 nM; in test [6], 163 nM.

In the case of `Nc1nc(-c2ccc(CO)cc2)nc2sc(-c3ccco3)nc12`, the Ratio Ki in [1] was 10.1; in test [2], 0.5. In addition, the Ki in [3] was determined as 7.7 nM; in test [4], 3.58 nM; in [7] it was 77.7 nM. For the same compound, in test [5], the IC50 was > 30000 nM.

`O=C(Nc1nc(-c2ccccc2)nc2sc(-c3ccco3)nc12)c1ccco1`: the Ratio Ki in [8] amounted to 66.2; in test [9], 107. The Ki in test [3] was determined as 428 nM; in [4] it was 4 nM; in test [7], 265 nM. Besides, the half-maximal inhibitory concentration (IC50) in [5] was > 30000 nM.

Turning to `Cc1ccc(-c2nc(N)c3nc(-c4ccccc4)sc3n2)o1`, the Ratio Ki in test [1] is 1.3; in [2], 1.1. Also, the figures for the Ki in test [3], in test [4] and in test [7] were 22.4 nM, 24.9 nM and 28.9 nM, respectively. For the same compound, the IC50 in [5] is > 30000 nM.

`Nc1nc(-c2cccc(O)c2)nc2sc(-c3ccco3)nc12`: the values for the Ratio Ki in [1] and in test [2] were 31.1 and 9.6, respectively. Also, the Ki was 1.64 nM in [3], 15.7 nM in test [4] and 51 nM in test [7]. The IC50 in test [5] is > 30000 nM; in test [6] it was 764 nM.

For `Nc1nc(-c2ccccc2)nc2sc(-c3ccccc3)nc12`, the Ratio Ki in test [8] was 1.76; in test [1] it was 7.8; in test [2], 4.4; in test [9], 0.22. In addition, the Ki in test [3] came out at 19 nM; in [4], 84 nM; in test [7] it was 148 nM. Moreover, the IC50 in [5] was > 30000 nM.

As to `Nc1nc(-c2ccccc2)nc2sc(-c3ccco3)nc12`, the Ratio Ki is 2.2 in [8], 11 in test [1], 5 in test [2] and 0.2 in test [9]. In addition, the Ki in test [3] turned out to be 3 nM; in test [4], 15 nM; in test [7], 33 nM. Moreover, in test [5], the concentration for half-maximal inhibition (IC50) was > 30000 nM.

`Cc1nc(NC(=O)c2ccccc2)c2nc(-c3ccccc3)sc2n1`: the figures for the Ratio Ki in [8] and in [9] were 1.3 and 2.8, respectively. The Ki in test [3] worked out at 1950 nM; in test [4] it was 691 nM; in test [7], 935 nM. Also, the IC50 in test [5] is > 30000 nM.

As for `COc1ccc(-c2nc(N)c3nc(-c4ccccc4)sc3n2)cc1`, the Ratio Ki in [1] was 1.9; in test [2] it was 0.4. In addition, the figures for the inhibitory constant (Ki) in test [3], in test [4] and in test [7] were 115 nM, 46.7 nM and 225 nM, respectively. The IC50 in test [5] was > 30000 nM.

For the compound `Nc1nc(-c2cccc(CO)c2)nc2sc(-c3ccco3)nc12`, the Ratio Ki in [1] came to 13; in test [2], 0.4. For the same compound, the Ki in test [3] was 2.1 nM; in [4], 0.9 nM; in test [7], 28 nM. For the same compound, the half-maximal inhibitory concentration (IC50) in [5] was > 30000 nM.

Consider `Nc1nc(-c2ccc(CO)cc2)nc2sc(-c3ccccc3)nc12`, for which the Ratio Ki in test [1] is 1; in [2] it was 0.1. The Ki in test [3] was 82 nM; in test [4], 8.2 nM; in test [7] it was 82 nM. The IC50 in [5] is > 30000 nM.

Regarding `COc1ccc(-c2nc(N)c3nc(-c4ccco4)sc3n2)cc1`, the values for the Ratio Ki in [1] and in test [2] were 4.2 and 0.4, respectively. The Ki in [3] turned out to be 11.2 nM; in [4], 4.66 nM; in test [7], 47.7 nM. Besides, in [5], the half-maximal inhibitory concentration (IC50) is > 30000 nM.

As for `Cc1ccc(-c2nc(N)c3nc(-c4ccco4)sc3n2)o1`, the Ratio Ki is 19.4 in [1] and 5.8 in [2]. Also, the figures for the Ki in [3], in test [4] and in test [7] were 2.36 nM, 13.8 nM and 45.9 nM, respectively. Besides, in [5], the IC50 was > 30000 nM.
